Each structure is given as a SMILES string.

For the experiment, the target named is Adenosylhomocysteinase (Homo sapiens, UniProt P23526). The experiment can be described thus: Inhibition of human recombinant S-adenosyl-L-homocysteine hydrolase assessed as AdoHcy hydrolysis activity by HPLC analysis.
Adenosylhomocysteinase, sequence (P23526 whole entry): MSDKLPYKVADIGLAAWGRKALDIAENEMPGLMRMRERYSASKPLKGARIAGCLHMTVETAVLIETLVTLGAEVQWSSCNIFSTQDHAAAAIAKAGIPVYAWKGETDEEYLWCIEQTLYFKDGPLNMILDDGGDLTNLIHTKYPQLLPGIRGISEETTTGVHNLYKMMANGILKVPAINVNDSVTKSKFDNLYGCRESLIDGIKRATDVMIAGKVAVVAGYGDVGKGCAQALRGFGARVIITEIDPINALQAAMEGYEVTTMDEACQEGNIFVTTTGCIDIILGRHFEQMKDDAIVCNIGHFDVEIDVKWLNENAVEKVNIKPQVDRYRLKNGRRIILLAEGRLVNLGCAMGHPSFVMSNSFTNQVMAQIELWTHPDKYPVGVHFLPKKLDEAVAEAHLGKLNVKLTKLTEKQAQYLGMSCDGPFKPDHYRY
In general, IC50 refers to the concentration that gives 50% inhibition. Turning to `O=C(CN(CC(=O)N1CCC(c2ccccc2)CC1)c1cc(Cl)ccc1Oc1ccc(Cl)cc1)NCCN1CCCC1`, the IC50 came out at 0.97 µM.
Then `O=C(CN(CC(=O)NC1Cc2ccccc2C1)c1cc(Cl)ccc1Oc1ccc(Cl)cc1)NCCN1CCCC1`, with 11.4 µM; and `O=C(CN(CC(=O)N1Cc2ccccc2C1)c1cc(Cl)ccc1Oc1ccc(Cl)cc1)NCCN1CCCC1`, with > 100 µM; and `O=C(CN(CC(=O)N1CCc2ccccc2C1)c1cc(Cl)ccc1Oc1ccc(Cl)cc1)NCCN1CCCC1`, with 17 µM.
Then `CN(C(=O)CN(CC(=O)NCCN1CCCC1)c1cc(Cl)ccc1Oc1ccc(Cl)cc1)C1CCNCC1`, with > 100 µM.
Then `CN(C(=O)CN(CC(=O)NC1CCCNC1)c1cc(Cl)ccc1Oc1ccc(Cl)cc1)C1Cc2ccccc2C1` (configuration not stated), with 1.2 µM.
`CN(C(=O)CN(CC(=O)NC1CCNC1)c1cc(Cl)ccc1Oc1ccc(Cl)cc1)C1Cc2ccccc2C1` (configuration not stated): the IC50 is 1.5 µM.

The record behind these values is ChEMBL document CHEMBL3352172, “Discovery of S-adenosyl-L-homocysteine hydrolase inhibitors based on non-adenosine analogs” (Bioorg Med Chem Lett, 2014).
